Measurements as given in BindingDB's records for patent US20240051954 (Novartis, 2024).

Target: T1, Cyclic GMP-AMP synthase [147-522] (Homo sapiens, UniProt Q8N884)
T1 construct: 147-522
Test: Quantification of cGAS Protein Inhibition
Experimental: The enzyme solution was transferred into the reagent buffer to give a final concentration of 30 nM. […] The reaction plates were then centrifuged at 1000 rpm for 1 minute and incubated at room temperature for 1 h. […] The concentration of cGAMP was measured on a LC-MS/MS system consisting of a THERMO Dionex Ultimate LC system with a high pressure pump, an autosampler, a column heating compartment (Reinach, Switzerland) and a SCIEX Triple Quad 5500 (Framingham, MA, USA) mass spectrometer for detection. The sample plates were centrifuged for 10 minutes at 2000 rpm. Up to three plates were placed in the autosampler for injection. […] An isocratic flow of 1.0 mL/min solvent (60% ACN, 8 mM ammonium acetate, 5 mM ammonium hydroxide, 0.04% acetic acid) was applied and sprayed into the ion source of the mass spectrometers. The MS parameters were optimized based on the properties of the compounds to be detected and run in positive multi-reaction mode (MRM) based on the mass transitions. LC and MS parameters were also optimized to allow for a sample-to-sample measuring time of approximately 75 sec and a run time of 8 hours per 384-well plate. All data were analyzed with Excel; and the dose response curves were generated using the auto fitting function of XLfit.

T1 sequence (Q8N884 147-522): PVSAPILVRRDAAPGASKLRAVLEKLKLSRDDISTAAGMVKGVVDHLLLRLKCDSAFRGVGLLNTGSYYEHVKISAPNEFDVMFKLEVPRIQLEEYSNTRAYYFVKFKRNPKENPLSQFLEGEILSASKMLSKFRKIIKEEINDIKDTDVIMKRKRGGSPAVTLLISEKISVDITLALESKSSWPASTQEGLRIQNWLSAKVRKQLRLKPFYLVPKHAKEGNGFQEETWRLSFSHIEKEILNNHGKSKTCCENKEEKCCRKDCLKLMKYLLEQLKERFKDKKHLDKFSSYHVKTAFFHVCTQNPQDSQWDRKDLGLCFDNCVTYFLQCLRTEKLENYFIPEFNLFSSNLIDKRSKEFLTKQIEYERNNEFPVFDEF

IC50: 121 nM
SMILES: COc1nc2c(-n3ccnc3)c(-c3nnc(C(O)C(F)F)[nH]3)n(C)c2cc1Cl (stereo unspecified) [US20240051954, Example 21]
